These results are taken from patent US3985790A, “Phenoxyalkane carboxylic acid derivative” (priority 1974, dated 1976).

Where two headings read alike, the source gives them in different places.

The test system of data set [1] is serum cholesterol and serum triglyceride levels. The class given is in vivo, SPF-Wistar rats. As to conditions: 14 days. The source says:
(§1) The therapeutic effectiveness of the salt of this invention ("clofibrinate") was compared with that of the fundamental parent substance, namely the 4-(p-chlorophenoxyacetylamino)-benzoic acid diethylaminoethyl ester, as well as clofibrate, that is the ethyl ester of clofibrinic acid, using SPF-Wistar rats. In these tests the compound in a vehicle was supplied orally for a period of 14 days. Twenty-four hours after the last dose blood analyses were made for determining the serum cholesterol and serum triglyceride levels.
In a first series of experiments, the effectiveness was studied in rats having normal blood lipid levels which were made hyperlipemic by means of a special fatty diet 1. This cholesterol-rich fatty diet 1 corresponded to that of Berger et al., Proc. Soc. Ex. Biol. (1969) 132,293.

Data set [2] concerns human lipid metabolism. As to conditions: French Pat. No. 1,552,793; cited from earlier work.
The subject of data set [3] is blood serum cholesterol and lipid levels. Briefly: Effect on blood serum cholesterol and lipid levels, tolerability and toxicity, general statements. The class given is in vivo, SPF-Wistar rats. To be noted: hyperlipemic conditions.
Source text: as §1
In a first series of experiments, the effectiveness was studied in rats having normal blood lipid levels which were made hyperlipemic by means of a special fatty diet 1. This cholesterol-rich fatty diet 1 corresponded to that of Berger et al., Proc. Soc.
In a second series young male rats of 80-90 grams weight were fed a fat and cholesterol-rich diet (fatty diet 2). The statistical significance (p) of the results is also given.

The test system of data set [4] is serum cholesterol and serum triglyceride levels. Briefly: Antilipemic effect in young male rats, fatty diet 2 (high cholesterol-high fat), 14 days oral. The class given is in vivo, SPF-Wistar rats. As to conditions: fatty diet 2, 250 mg/kg oral. The source says: In these tests the compound in a vehicle was supplied orally for a period of 14 days. Twenty-four hours after the last dose blood analyses were made for determining the serum cholesterol and serum triglyceride levels. In a second series young male rats of 80-90 grams weight were fed a fat and cholesterol-rich diet (fatty diet 2). The statistical significance (p) of the results is also given.

A short description of data set [5]: Acute toxicity (LD50). To be noted: mouse, in vivo.
Where [6] appears, read: fatty diet 1, 1000 mg/kg oral, 3 of 10 animals died.

For the molecule `CCN(CC)CCOC(=O)c1ccc(NC(=O)COc2ccc(Cl)cc2)cc1` [Parent Compound, 4-(p-chlorophenoxyacetylamino)-benzoic acid diethylaminoethyl ester], in data set [1] (fatty diet 1, 100 mg/kg oral), the Decrease of cholesterol came out at 7.8%, the “Final Value Cholest.” value stood at 330.6 mg% and the “Final Value Triglycerides” value is on record as 114.9. In addition, in data set [1] (fatty diet 1, 250 mg/kg oral), the Decrease of cholesterol was 24.9%, the “Final Value Cholest.” value was determined as 269.4 mg% and the “Final Value Triglycerides” value is on record as 101.6. Moreover, in data set [2], the “influence on human lipid metabolism” value was “have an influence on human lipid metabolism”.
Regarding `CCOC(=O)C(C)(C)Oc1ccc(Cl)cc1` [Clofibrate, ethyl-2-(p-chlorophenoxy)-isobutyrate], the “effectiveness against elevated cholesterol and elevated triglyceride levels” value in data set [3] is “only slightly effective under hyperlipemic conditions or even fails completely”. In addition, in data set [4], the Decrease of triglycerides was 20.6%, the “Final Value Cholest.” value turned out to be 133.3 mg % and the “Final Value Triglycerides” value came to 107.7. Besides, the LD50 in data set [5] turned out to be 1150 mg/kg. For the same molecule, in data set [1] (fatty diet 1, 250 mg/kg oral), the Decrease of cholesterol is on record as 3.0%, the Decrease of triglycerides came out at 12.5%, the “Final Value Cholest.” value is given as 347.9 mg% and the “Final Value Triglycerides” value is reported as 75.6. Moreover, in data set [1] (setting [6]), the Decrease of cholesterol is recorded as 31.6%, the “Final Value Cholest.” value is listed as 245.4 mg% and the “Final Value Triglycerides” value was 120.3.
